Laboratory results published in PMC2697495 (The Journal of pharmacy and pharmacology, 2008).
Marks after values point to notes of the source that are not given here.

What was measured:
UGT1A6 (HEK293) = molecular target: T1, UGT1A6 (HEK293) (Homo sapiens, UniProt P19224); experiment: 5-HT glucuronidation by recombinant UGT1A6; type: biochemical; conditions: for 5-HT glucuronidation, % of the control activity (measured at 0 mM): UGT1A6 (HEK293), 4 mM 5-HT, n=3
T1 sequence (P19224 27-532): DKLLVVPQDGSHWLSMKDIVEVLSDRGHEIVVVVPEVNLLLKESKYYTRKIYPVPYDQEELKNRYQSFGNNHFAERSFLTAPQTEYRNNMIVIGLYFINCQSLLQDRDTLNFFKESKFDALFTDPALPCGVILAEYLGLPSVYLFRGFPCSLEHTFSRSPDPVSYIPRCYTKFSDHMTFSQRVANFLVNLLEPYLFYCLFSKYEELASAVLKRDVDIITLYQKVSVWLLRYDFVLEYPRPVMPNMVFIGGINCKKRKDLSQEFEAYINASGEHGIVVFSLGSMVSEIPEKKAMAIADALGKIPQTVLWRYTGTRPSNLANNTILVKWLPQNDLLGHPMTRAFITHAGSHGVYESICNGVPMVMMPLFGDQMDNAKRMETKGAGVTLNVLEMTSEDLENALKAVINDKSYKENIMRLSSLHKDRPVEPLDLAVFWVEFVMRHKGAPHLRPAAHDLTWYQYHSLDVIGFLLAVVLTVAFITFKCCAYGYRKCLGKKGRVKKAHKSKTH

[1] = tested on: pooled human liver microsomes (pHLMs); experiment: Trifluoperazine glucuronidation by pHLMs; type: biochemical; conditions: pHLM, 200 μM trifluoperazine, n=3
UGT2B4 = UGT2B4 (Homo sapiens, UniProt P06133); experiment: Codeine glucuronidation by recombinant UGT2B4; type: biochemical; conditions: 1 mM codeine, n=3
Sequence of UGT2B4 (P06133 24-528): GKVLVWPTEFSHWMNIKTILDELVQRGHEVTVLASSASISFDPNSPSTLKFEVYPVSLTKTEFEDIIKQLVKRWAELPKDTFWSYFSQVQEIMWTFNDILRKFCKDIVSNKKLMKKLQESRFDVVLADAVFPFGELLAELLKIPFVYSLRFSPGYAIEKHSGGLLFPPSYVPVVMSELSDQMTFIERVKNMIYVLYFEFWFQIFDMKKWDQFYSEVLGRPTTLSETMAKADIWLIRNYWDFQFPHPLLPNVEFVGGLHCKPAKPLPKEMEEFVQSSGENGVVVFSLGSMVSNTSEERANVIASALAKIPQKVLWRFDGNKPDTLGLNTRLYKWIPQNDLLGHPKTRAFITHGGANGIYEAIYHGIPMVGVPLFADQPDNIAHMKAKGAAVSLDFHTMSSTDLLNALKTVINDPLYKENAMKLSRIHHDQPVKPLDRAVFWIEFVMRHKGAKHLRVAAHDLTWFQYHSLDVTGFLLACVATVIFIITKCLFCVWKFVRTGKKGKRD

UGT2B7 [2] = molecular target: T2, UGT2B7 (Homo sapiens, UniProt P16662); experiment: Codeine glucuronidation by recombinant UGT2B7; type: biochemical; conditions: 1 mM codeine, n=3
T2 sequence (P16662 24-529): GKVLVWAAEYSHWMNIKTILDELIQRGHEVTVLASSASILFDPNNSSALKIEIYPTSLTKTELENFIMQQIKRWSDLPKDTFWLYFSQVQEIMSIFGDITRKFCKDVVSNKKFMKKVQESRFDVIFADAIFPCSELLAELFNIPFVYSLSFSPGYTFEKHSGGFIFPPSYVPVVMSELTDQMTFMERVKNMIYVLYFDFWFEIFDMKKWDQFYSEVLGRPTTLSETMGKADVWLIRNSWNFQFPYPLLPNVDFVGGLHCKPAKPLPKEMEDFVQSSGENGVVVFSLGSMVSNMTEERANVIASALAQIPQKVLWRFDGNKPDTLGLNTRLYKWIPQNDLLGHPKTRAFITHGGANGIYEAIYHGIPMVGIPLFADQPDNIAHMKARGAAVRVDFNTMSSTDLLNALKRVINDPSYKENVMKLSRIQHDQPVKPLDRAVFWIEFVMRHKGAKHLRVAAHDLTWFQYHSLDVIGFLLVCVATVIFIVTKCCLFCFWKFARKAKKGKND

UGT2B7 [3] = molecular target: T2, UGT2B7; experiment: AZT glucuronidation by recombinant UGT2B7; type: biochemical; conditions: 500 μM AZT, n=3
[4] = tested on: pooled human liver microsomes (pHLMs); experiment: Salicylic acid; type: biochemical; conditions: pHLM, 5 mM salicylic acid, phenol glucuronide, n=3
UGT1A3 [5] = molecular target: T3, UGT1A3 (Homo sapiens, UniProt P35503); experiment: Estradiol-3 glucuronidation by recombinant UGT1A3; type: biochemical; conditions: for Estradiol-3 glucuronidation, % of the control activity (measured at 0 mM): UGT1A3, 100 μM estradiol, n=3
T3 sequence (P35503 29-534): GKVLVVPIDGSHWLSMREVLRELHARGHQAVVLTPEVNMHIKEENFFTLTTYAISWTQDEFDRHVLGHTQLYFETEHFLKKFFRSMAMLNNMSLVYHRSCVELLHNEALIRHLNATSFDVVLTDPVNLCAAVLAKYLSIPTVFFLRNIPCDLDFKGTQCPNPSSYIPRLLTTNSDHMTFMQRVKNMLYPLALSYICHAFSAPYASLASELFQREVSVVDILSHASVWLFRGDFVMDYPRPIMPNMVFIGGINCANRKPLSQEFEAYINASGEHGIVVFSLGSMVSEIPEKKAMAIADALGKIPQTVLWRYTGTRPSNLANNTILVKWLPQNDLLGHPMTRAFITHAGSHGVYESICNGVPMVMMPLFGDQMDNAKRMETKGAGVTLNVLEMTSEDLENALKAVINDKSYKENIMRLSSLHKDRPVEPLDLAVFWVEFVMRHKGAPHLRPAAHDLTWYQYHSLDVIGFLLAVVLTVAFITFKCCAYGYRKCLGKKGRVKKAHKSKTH

[6] = tested on: pooled human liver microsomes (pHLMs); experiment: Estradiol-17 glucuronidation by pHLMs; type: biochemical; conditions: pHLM, 100 μM estradiol, n=3
UGT1A3 [7] = molecular target: T3, UGT1A3; experiment: Estradiol-17 glucuronidation by recombinant UGT1A3; type: biochemical; conditions: 100 μM estradiol, n=3
UGT2B15 = UGT2B15 (Homo sapiens, UniProt P54855); experiment: e-4-hydroxy-tamoxifen glucuronidation by insect cell-expressed UGT2B15; type: biochemical; conditions: 20 mM saccharolactone, pH-adjusted to 7.5
Sequence of UGT2B15 (P54855 24-530): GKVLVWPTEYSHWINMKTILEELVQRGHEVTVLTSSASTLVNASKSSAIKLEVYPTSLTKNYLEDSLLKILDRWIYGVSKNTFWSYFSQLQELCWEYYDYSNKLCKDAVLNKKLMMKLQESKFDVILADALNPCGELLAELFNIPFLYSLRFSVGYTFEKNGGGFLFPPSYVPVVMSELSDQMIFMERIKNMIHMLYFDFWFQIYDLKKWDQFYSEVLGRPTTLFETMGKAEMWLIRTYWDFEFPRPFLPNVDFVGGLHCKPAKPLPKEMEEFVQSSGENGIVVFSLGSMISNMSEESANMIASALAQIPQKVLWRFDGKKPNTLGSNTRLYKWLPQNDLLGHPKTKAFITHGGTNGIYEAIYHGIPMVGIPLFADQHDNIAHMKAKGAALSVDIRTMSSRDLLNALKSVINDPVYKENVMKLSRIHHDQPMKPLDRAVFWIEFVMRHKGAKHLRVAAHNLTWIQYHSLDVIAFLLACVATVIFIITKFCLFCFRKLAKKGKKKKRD

[8] = tested on: endogenous β-glucuronidase, insect cell expressed UGT2B7; conditions: recombinant UGT2B7 preparation; 10 mM saccharolactone
[9] = tested on: endogenous β-glucuronidase, insect cell expressed UGT1A1; conditions: recombinant UGT1A1 preparation; 10 mM saccharolactone
rat liver microsomes = conditions: 4 mM saccharolactone, ref Brunelle & Verbeeck 1993; cited from earlier work

## O=C(O)[C@@H](O)[C@H]1OC(=O)[C@H](O)[C@H]1O [saccharolactone, D-saccharic acid 1,4-lactone]
UGT1A6 (HEK293); 5 mM saccharolactone
  5-HT glucuronidation, % of the control activity (measured at 0 mM): 91±6%
UGT1A6 (HEK293); 20 mM saccharolactone
  5-HT glucuronidation, % of the control activity (measured at 0 mM): 90±7%
UGT1A6 (HEK293); UGT1A6 expressed in mammalian (HEK293) cells, saccharolactone up to 20 mM
  effect on 5-hydroxytryptamine glucuronidation: no effect
[1]; 1 mM saccharolactone
  Trifluoperazine glucuronidation, % of the control activity (measured at 0 mM): 98±5%
[1]; 2 mM saccharolactone
  Trifluoperazine glucuronidation, % of the control activity (measured at 0 mM): 101±9%
[1]; 5 mM saccharolactone
  Trifluoperazine glucuronidation, % of the control activity (measured at 0 mM): 95±3%
[1]; 10 mM saccharolactone
  Trifluoperazine glucuronidation, % of the control activity (measured at 0 mM): 93±4%
[1]; 20 mM saccharolactone
  Trifluoperazine glucuronidation, % of the control activity (measured at 0 mM): 97±5%
UGT2B4; 5 mM saccharolactone
  Codeine glucuronidation, % of the control activity (measured at 0 mM): 91±4%
UGT2B4; 20 mM saccharolactone
  Codeine glucuronidation, % of the control activity (measured at 0 mM): 88±2%
UGT2B7 [2]; 5 mM saccharolactone
  Codeine glucuronidation, % of the control activity (measured at 0 mM): 90±7%
UGT2B7 [2]; 20 mM saccharolactone
  Codeine glucuronidation, % of the control activity (measured at 0 mM): 90±3%
UGT2B7 [3]; 5 mM saccharolactone
  AZT glucuronidation, % of the control activity (measured at 0 mM): 102±2%
UGT2B7 [3]; 20 mM saccharolactone
  AZT glucuronidation, % of the control activity (measured at 0 mM): 102±8%
[4]; 1 mM saccharolactone
  Salicylic Acid glucuronidation, % of the control activity (measured at 0 mM): 101±5%
[4]; 2 mM saccharolactone
  Salicylic Acid glucuronidation, % of the control activity (measured at 0 mM): 111±5%
[4]; 5 mM saccharolactone
  Salicylic Acid glucuronidation, % of the control activity (measured at 0 mM): 83±3 ^a %
[4]; 10 mM saccharolactone
  Salicylic Acid glucuronidation, % of the control activity (measured at 0 mM): 90±1%
[4]; 20 mM saccharolactone
  Salicylic Acid glucuronidation, % of the control activity (measured at 0 mM): 85±9 ^a %
UGT1A3 [5]; 5 mM saccharolactone
  Estradiol-3 glucuronidation, % of the control activity (measured at 0 mM): 92±18%
UGT1A3 [5]; 20 mM saccharolactone
  Estradiol-3 glucuronidation, % of the control activity (measured at 0 mM): 97±10%
UGT1A3 [5]; recombinant UGT1A3
  effect on estradiol glucuronidation: no effect
[6]; 1 mM saccharolactone
  Estradiol-17 glucuronidation, % of the control activity (measured at 0 mM): 71±4 ^a %
[6]; 2 mM saccharolactone
  Estradiol-17 glucuronidation, % of the control activity (measured at 0 mM): 81±8%
[6]; 5 mM saccharolactone
  Estradiol-17 glucuronidation, % of the control activity (measured at 0 mM): 78±7 ^a %
[6]; 10 mM saccharolactone
  Estradiol-17 glucuronidation, % of the control activity (measured at 0 mM): 68±2%
[6]; 20 mM saccharolactone
  Estradiol-17 glucuronidation, % of the control activity (measured at 0 mM): 66±6 ^a %
UGT1A3 [7]; 5 mM saccharolactone
  Estradiol-17 glucuronidation, % of the control activity (measured at 0 mM): 90±14%
UGT1A3 [7]; 20 mM saccharolactone
  Estradiol-17 glucuronidation, % of the control activity (measured at 0 mM): 98±10%
UGT2B15
  decrease in e-4-hydroxy-tamoxifen glucuronidation activity: 25%
[8]
  inhibition of estradiol glucuronide hydrolysis: effective in the inhibition of hydrolysis
[9]
  inhibition of estradiol glucuronide hydrolysis: effective in the inhibition of hydrolysis
Rat liver microsomes
  change in diflunisal phenol glucuronide formation: no change
  increase of diflunisal acyl glucuronide formation (Vmax): 2 fold
